{"source": "patent US20050282877A1", "about": "“Method of decreasing inflammation in kidney transplantion using angiotensin receptor blockers” (priority 2004, published 2005)", "key": {"[1]": {"conditions": "cited from earlier work"}, "[2]": {"test_system": "plasma proteins", "conditions": "in vivo; cited from earlier work"}, "[3]": {"test_system": "urinary H2O2", "assay": "Detection of urinary hydrogen peroxide (H2O2) in kidney transplant recipients with CAN", "assay_type": "in vivo, human", "conditions": "mean±SD", "procedure": "The study, enrollment process, and protocols described herein were approved by the University of Wisconsin Institutional Review Board. Individuals with evidence of chronic allograft dysfunction have allograft functionality greater than 6 months with serum creatinine≧0.3 mg/dl above discharge creatinine. In the absence of acute rejection, these individuals have obstructive uropathy or urinary tract infection. To be eligible for the study, individuals also had concomitant evidence of elevated blood pressure (>140/80) and/or proteinuria (>2+ on dipstick urinalysis or spot urine protein-to-creatinine ratio>1).\n(§1) Once identified, study subjects were randomized and treated with either losartan (25-100 mg) as part of their anti-hypertensive regimen or with other types of anti-hypertensive agents, e.g., calcium channel blockers. Agents functioning as AT1R blockers were excluded. Neither group received ACE inhibitors. Study subjects were maintained on their standard immunosuppressive regimen (corticosteroids 5-10 mg orally daily; mycophenolate mofetil 500 to 1000 mg orally twice a day; and calcineurin inhibition with either tacrolimus (target levels 2-5 ng/ml), cyclosporine A (target levels 100-150 ng/ml), or rapamycin (target levels 5-15 ng/ml ).\n(§2) Study subjects underwent biopsies at the initiation of the study. Simultaneously, whole blood samples were obtained for analysis of peripheral blood lymphocyte proliferation and stimulated cytokine production. Subsequent whole blood samples were obtained at three-month intervals for serial analyses. […] Estimated glomerular filtration rate (eGFR) was assessed using the second equation derived by Nankivell. […]\nThe Amplex Red Hydrogen Peroxide/Peroxidase Assay Kit (Molecular Probes, Eugene, Ore.) was used according to the manufacturer's instructions to measure H2O2. […] A microplate reader with fluorescence emission detection at 590 nm was used to measure H2O2 levels. H2O2 concentrations were read from the standard curve."}, "[4]": {"test_system": "peripheral blood lymphocytes (PBLs)", "assay": "Proliferation assay ([3H]-thymidine) of CD3/CD28-stimulated PBLs from CAN patients", "assay_type": "in vivo, human", "experimental": "Once identified, study subjects were randomized and treated with either losartan (25-100 mg) as part of their anti-hypertensive regimen or with other types of anti-hypertensive agents, e.g., calcium channel blockers. Agents functioning as AT1R blockers were excluded. Neither group received ACE inhibitors. Study subjects were maintained on their standard immunosuppressive regimen (corticosteroids 5-10 mg orally daily; mycophenolate mofetil 500 to 1000 mg orally twice a day; and calcineurin inhibition with either tacrolimus (target levels 2-5 ng/ml), cyclosporine A (target levels 100-150 ng/ml), or rapamycin (target levels 5-15 ng/ml ). Eight to nine milliliters of whole blood taken at each time point from each individual were incubated at room temperature in 40 ml ACK lysis buffer (150 mM NH4Cl, 10 mM KHCO3, 0.1 mM Na2EDTA, pH 7.3) for 10 minutes to lyse red blood cells. Samples were then centrifuged at 1000 rpm. The supernatant was discarded. Cells were resuspended in 10 ml complete RPMI media (RPMI-1640, BioWhitaker, Walkersville, Md.) supplemented with FCS (Sigma Aldrich, St. Louis, Mo.); 2 mM L-glutamine (BioWhitaker); 50 μM 2-β-mercaptoethanol (Sigma Aldrich); 100 U/ml penicillin; and 100 μg/ml streptomycin sulfate (Sigma Aldrich). Twenty μl of this sample was removed for cell enumeration. Forty ml of complete RPMI media was then added to the remaining sample and this was centrifuged at 1000 rpm for 10 minutes. The resulting PBL pellet was resuspended in complete RPMI media at a concentration of 1.5×10^6 cells per ml. CD3/CD28-coated plates were coated with antibody diluted in PBS (1 mg/mI). […] Some plates were analyzed immediately after the overnight incubation. Other plates were frozen at 20EC and then analyzed within 30 days of the initial study. [^3H]-Thymidine incorporation was then determined using a Packard TopCount NXT scintillation plate reader. […] The Δ proliferation index was then calculated by assessing the difference between the proliferation index at baseline and the proliferation index at various study time points as indicated."}, "[5]": {"test_system": "IFN-Γ", "assay": "ELISpot assay for T cell generation of IFN-Γ in PBLs from CAN patients", "assay_type": "in vivo, human", "procedure": "Once identified, study subjects were randomized and treated with either losartan (25-100 mg) as part of their anti-hypertensive regimen or with other types of anti-hypertensive agents, e.g., calcium channel blockers. Agents functioning as AT1R blockers were excluded. Neither group received ACE inhibitors. Study subjects were maintained on their standard immunosuppressive regimen (corticosteroids 5-10 mg orally daily; mycophenolate mofetil 500 to 1000 mg orally twice a day; and calcineurin inhibition with either tacrolimus (target levels 2-5 ng/ml), cyclosporine A (target levels 100-150 ng/ml), or rapamycin (target levels 5-15 ng/ml ). Eight to nine milliliters of whole blood taken at each time point from each individual were incubated at room temperature in 40 ml ACK lysis buffer (150 mM NH4Cl, 10 mM KHCO3, 0.1 mM Na2EDTA, pH 7.3) for 10 minutes to lyse red blood cells. Samples were then centrifuged at 1000 rpm. The supernatant was discarded. Cells were resuspended in 10 ml complete RPMI media (RPMI-1640, BioWhitaker, Walkersville, Md.) supplemented with FCS (Sigma Aldrich, St. Louis, Mo.); 2 mM L-glutamine (BioWhitaker); 50 μM 2-β-mercaptoethanol (Sigma Aldrich); 100 U/ml penicillin; and 100 μg/ml streptomycin sulfate (Sigma Aldrich). Twenty μl of this sample was removed for cell enumeration. Forty ml of complete RPMI media was then added to the remaining sample and this was centrifuged at 1000 rpm for 10 minutes. The resulting PBL pellet was resuspended in complete RPMI media at a concentration of 1.5×10^6 cells per ml. ELISpot assays were conducted according to the manufacturer's directions (Cellular Technology Ltd., Cleveland, Ohio). Briefly, after plating cells in the proliferation assay, the balance of the cells unused in that assay were used for the ELISpot assay at a concentration of 3×10^6 cells per ml. One hundred μl of RPMI media were added to each well with a multichannel pipetter. Aliquots of treated and untreated cells (300 μl) were added to the IFN-Γ and IL-5 wells with serial two-fold dilutions. The last row served as a media control. ELISpot plates were incubated for two days at 37EC. Plates were washed three times with PBS and then washed three times with PBS/Tween. Secondary detection antibodies (OptElA, IFN, and IL-5 obtained from the aforementioned kits) were diluted at 4 μl/ml in 1% BSA/PBS and added to the plates for 24 hours at 4EC. The plates were then washed four times with PBS/Tween. Streptavidin alkaline phosphatase 1:1000 (Dako Cytomation, Glostrop, Denmark, catalog no. D0396) 100 μl/well diluted in 1% BSA/PBS/Tween was then added to the plates at room temperature for two hours. […] Plate images were then scanned into computer images and spots analyzed using Immunospot-brand software (from CTL Technologies)."}, "[6]": {"test_system": "IL-4 or IL-5", "assay": "ELISpot assay for IL-4 or IL-5 production in PBLs from CAN patients", "assay_type": "in vivo, human", "conditions": "following institution of ARB therapy (data not shown)", "procedure": "Once identified, study subjects were randomized and treated with either losartan (25-100 mg) as part of their anti-hypertensive regimen or with other types of anti-hypertensive agents, e.g., calcium channel blockers. Agents functioning as AT1R blockers were excluded. Neither group received ACE inhibitors. Study subjects were maintained on their standard immunosuppressive regimen (corticosteroids 5-10 mg orally daily; mycophenolate mofetil 500 to 1000 mg orally twice a day; and calcineurin inhibition with either tacrolimus (target levels 2-5 ng/ml), cyclosporine A (target levels 100-150 ng/ml), or rapamycin (target levels 5-15 ng/ml ). ELISpot assays were conducted according to the manufacturer's directions (Cellular Technology Ltd., Cleveland, Ohio). Briefly, after plating cells in the proliferation assay, the balance of the cells unused in that assay were used for the ELISpot assay at a concentration of 3×10^6 cells per ml. One hundred μl of RPMI media were added to each well with a multichannel pipetter. Aliquots of treated and untreated cells (300 μl) were added to the IFN-Γ and IL-5 wells with serial two-fold dilutions. The last row served as a media control. ELISpot plates were incubated for two days at 37EC. […] Plate images were then scanned into computer images and spots analyzed using Immunospot-brand software (from CTL Technologies)."}, "[7]": {"assay": "Systolic blood pressure in the study cohort", "assay_type": "in vivo, human", "conditions": "every clinic visit at 3-month intervals", "procedure": "FIG. 1A is a graph depicting the systolic blood pressure in the study cohort. (The study cohort is described in the Examples.) Blood pressure was assessed at every clinic visit at 3-month intervals. […] Data shown are mean±standard deviation.”\nas §1, §2"}, "[8]": {"assay": "Estimated glomerular filtration rate (eGFR) in the study cohort", "assay_type": "in vivo, human", "conditions": "with institution of ARB therapy, compared to control group", "procedure": "FIG. 1B is a graph depicting the estimated glomerular filtration rate (eGFR) in the study cohort. Estimated GFR was calculated using the second equation derived by Nankivell et al. at the time points designated in the Examples. […] The eGFR in the ARB-treated cohort (-o-) declined slightly after treatment as compared to the control group (-▪-). Data shown are mean±standard deviation.\nas §1\nas §2, with “production.” for “production. Subsequent whole blood samples were obtained at three-month intervals for serial analyses.”"}, "[9]": {"test_system": "STAT1", "conditions": "losartan treatment; cited from earlier work"}, "[10]": {"test_system": "STAT3", "conditions": "losartan treatment; cited from earlier work"}}, "data": [{"smiles": "CCCc1nc2c(C)cc(-c3nc4ccccc4n3C)cc2n1Cc1ccc(-c2ccccc2C(=O)O)cc1", "note": "[Telmisartan, 4′-[(1,4′-dimethyl-2′-propyl [2,6′-bi-1H-benzimidazol]-1′-yl)methyl]-[1,1′-biphenyl]-2-carboxylic acid]", "values": [{"measurement": "solubility in strong acids", "setting": "[1]; strong acids (except HCl)", "value": "sparingly soluble"}, {"measurement": "solubility in strong bases", "setting": "[1]; strong bases", "value": "soluble"}, {"measurement": "solubility in water within a pH range", "setting": "[1]; water, pH range of from 3 to 9", "value": "practically insoluble"}]}, {"smiles": "CCCCc1nc(Cl)c(C(=O)O)n1Cc1ccc(-c2ccccc2-c2nn[nH]n2)cc1", "note": "[active metabolite of losartan]", "values": [{"measurement": "plasma-free fraction", "setting": "[2]", "value": 0.2, "unit": "%"}]}, {"smiles": "CCCCc1nc(Cl)c(CO)n1Cc1ccc(-c2ccccc2-c2nnn[nH]2)cc1.[K]", "note": "[losartan, 2-butyl-4-chloro-1-[p-(o-1H-tetrazol-5-ylphenyl)benzyl]imidazole-5-methanol monopotassium salt]", "values": [{"measurement": "urinary H2O2 excretion", "setting": "[3]; 6 months of treatment", "value": "2.17 ± 0.42", "unit": "µM"}, {"measurement": "urinary H2O2 excretion", "setting": "[3]; 9 months of treatment, p<0.05 vs. time 0", "value": "1.65 ± 0.49", "unit": "µM"}, {"measurement": "urinary H2O2", "setting": "[3]; baseline (time 0), ARB cohort", "value": "2.51 ± 0.62", "unit": "µM"}, {"measurement": "reduction in T lymphocyte proliferation indices versus the control group", "setting": "[4]; 6 month of losartan treatment, p<0.005", "value": "69±47", "unit": "% decrease"}, {"measurement": "reduction in T lymphocyte proliferation indices versus the control group", "setting": "[4]; 9 month of losartan treatment, p<0.05", "value": "52±21", "unit": "% decrease"}, {"measurement": "Δ proliferation index (change from baseline)", "setting": "[4]; three, six, and nine months, p<0.04", "value": "significant reduction"}, {"measurement": "IFN-Γ producing cells (ELISpot)", "setting": "[5]; 3 months, p=0.01 vs control", "value": "4127±1289", "unit": "spots per 1×10^6 cells"}, {"measurement": "IFN-Γ producing cells (ELISpot)", "setting": "[5]; 6 months, p=0.05 vs control", "value": "3899±1508", "unit": "spots per 1×10^6 cells"}, {"measurement": "IFN-Γ producing cells (ELISpot)", "setting": "[5]; 9 months, p<0.001 vs control", "value": "3845±1493", "unit": "spots per 1×10^6 cells"}, {"measurement": "IFN-Γ producing cells (ELISpot)", "setting": "[5]; 12 months, p<0.05 vs control", "value": "4276±1456", "unit": "spots per 1×10^6 cells"}, {"measurement": "IL-4 or IL-5 production", "setting": "[6]", "value": "no significant change"}, {"measurement": "systolic blood pressure, ARB-treated versus non-ARB-treated cohort", "setting": "[7]", "value": "no significant differences"}, {"measurement": "eGFR", "setting": "[8]", "value": "slight reduction"}, {"measurement": "plasma-free fraction", "setting": "[2]", "value": 1.3, "unit": "%"}, {"measurement": "solubility in common organic solvents", "setting": "[1]; acetonitrile and methyl ethyl ketone", "value": "slightly soluble"}, {"measurement": "solubility in alcohols", "setting": "[1]; alcohols", "value": "soluble"}, {"measurement": "solubility in water", "setting": "[1]; water", "value": "freely soluble"}, {"measurement": "phosphorylation of STAT1", "setting": "[9]", "value": "decrease phosphorylation"}, {"measurement": "phosphorylation of STAT3", "setting": "[10]", "value": "decrease phosphorylation"}]}]}
